The subject of one assay is Myosoton aquaticum. Put plainly: pot-culture method, stem and leaf treatment in greenhouse, fresh weight inhibition rate 20 days after treatment (Gowing method). The settings on record: for pest or weed control at 750 g/ha: 750 g/hm^2. In kind it is in vivo. On the procedure:
(§1) Capsella bursa-pastoris, Myosoton aquaticum, Alopecurus japonicus were collected from corn fields in Huangdao Experimental Base of Shandong Province.
(§2) The above weeds were cultivated by a pot culture method. […] Full and uniform weed seeds were selected, soaked in warm water at 25° C. for 6 hours, and germinated in a 28° C. biochemical incubator (darkness). […] A certain amount of water was added to the enamel pan regularly to keep the soil moist.
(§3) The technical materials were all dissolved in acetone, and diluted with an aqueous solution containing 0.1% emulsifier T-80. The dilution is performed as required.
(§4) A ratio of the active ingredient A to the active ingredient B and amounts thereof in each group depends on the characteristics and toxicity of the two agents, as well as the main application purpose of a corresponding formulation. Based on the pre-tests in this study, the dosage of the active ingredient A and the active ingredient B applied alone and in combination were shown in the tables, and a total 15 groups were designed. Water containing the solvent and emulsifier same with the above groups but free of the agents was used as a blank control.
(§5) 3 pots with 20 weed seeds per pot were treated in one treatment with […] per treatment, that is, a total of 60 weeds were treated in one treatment.
(§6) The agents were used for only once in the experiment. In the stage of weeds with 2 leaves and 1 core, the weeds were thinned out to maintain 15 weeds per pot and 45 weeds for each treatment, then continued to be cultured to 3-5-leaves stage of Capsella bursa-pastoris and Myosoton aquaticum, and 3-leaves and 1-core stage of Alopecurus japonicus, and treated.
(§7) The well-cultured weeds were evenly placed on a platform with an area of 0.5 m^2, and a solution of agents was sprayed on the stems and leaves thereof by the 3WP-2000-type walking spray tower at a dosage of 30 kg/ha and at a spray pressure of 0.3 MPa. After all the solution was sprayed, the valve was closed. After 30 seconds, the door of the spray tower was opened, and the nutritional bowl was taken out. Then the valve was opened, and the spray tube was cleaned by spraying 50 ml of water.
(§8) A pot-culture method was employed. For the cultivation of weeds, please refer to the Section 1.2, and “Pesticide guidelines for laboratory bioactivity tests—herbicides”. As to a method for applying agents, please refer to the section 2.3.2, that is, a method for treating stems and leaves was employed.
(§9) A method for investigating absolute number was employed, wherein whole seedlings of survival weeds were cut off with a blade along the soil surface, and the fresh weight of the weeds was weighed with an analytical balance. For dead weeds, the fresh weight thereof was zero.
(§10) The investigation was performed after 20 days of the treatment for only once.
(§11) Wherein, in the formula, X represented the fresh weight inhibition rate of the active ingredient A in a dosage of P, and Y represented the fresh weight inhibition rate of the active ingredient B in a dosage of Q.

Another assay deals with Capsella bursa-pastoris. The description is as above. The settings on record: for pest or weed control at 750 g/ha: 750 g/hm^2. In kind it is in vivo. On the procedure: as §1, §2, §3, §4, §5, §6, §7, §8, §9, §10, §11
The mark [1] stands for this setting: Myosoton aquaticum, 480 h, Myosoton aquaticum, read-out: actual fresh weight inhibition rate.
Setting [2] is: 480 h, Capsella bursa-pastoris, read-out: actual fresh weight inhibition rate.
[3] abbreviates: Myosoton aquaticum, 480 h, read-out: actual fresh weight inhibition rate.
[4] abbreviates: Capsella bursa-pastoris, 480 h, read-out: actual fresh weight inhibition rate.

As for `Cc1ccc(NC(=O)N(C)C)cc1Cl` [chlorotoluron], the pest or weed control at 1500 g/ha in the assay with Myosoton aquaticum (Myosoton aquaticum, 480 h, dosage 1500 g/hm^2, read-out: actual fresh weight inhibition rate) is 34.7%; in the assay on Capsella bursa-pastoris (Capsella bursa-pastoris, 480 h, dosage 1500 g/hm^2, read-out: actual fresh weight inhibition rate) it was 33.5%. Moreover, the pest or weed control at 2250 g/ha in the assay with Myosoton aquaticum (Myosoton aquaticum, 480 h, dosage 2250 g/hm^2, read-out: actual fresh weight inhibition rate) is 43.8%; in the assay with Capsella bursa-pastoris (Capsella bursa-pastoris, 480 h, dosage 2250 g/hm^2, read-out: actual fresh weight inhibition rate), 43.7%. In addition, the pest or weed control at 3000 g/ha in the assay with Myosoton aquaticum (Myosoton aquaticum, 480 h, dosage 3000 g/hm^2, read-out: actual fresh weight inhibition rate) stood at 60.1%; in the assay with Capsella bursa-pastoris (Capsella bursa-pastoris, 480 h, dosage 3000 g/hm^2, read-out: actual fresh weight inhibition rate), 57.3%.

Consider `CCNc1nc(NC(C)(C)C)nc(SC)n1` [terbutryn], for which the pest or weed control at 125 g/ha in the assay on Myosoton aquaticum (Myosoton aquaticum, 480 h, Myosoton aquaticum, 125 g/hm^2, read-out: actual fresh weight inhibition rate) turned out to be 13.4%; with Capsella bursa-pastoris (480 h, Capsella bursa-pastoris, 125 g/hm^2, read-out: actual fresh weight inhibition rate), 15.4%. Also, the pest or weed control at 275 g/ha in the assay with Myosoton aquaticum (Myosoton aquaticum, 480 h, Myosoton aquaticum, 275 g/hm^2, read-out: actual fresh weight inhibition rate) was 29.3%; in the assay with Capsella bursa-pastoris (480 h, Capsella bursa-pastoris, 275 g/hm^2, read-out: actual fresh weight inhibition rate) it was 25.3%. The pest or weed control at 425 g/ha in the assay with Myosoton aquaticum (Myosoton aquaticum, 480 h, Myosoton aquaticum, 425 g/hm^2, read-out: actual fresh weight inhibition rate) was 33.9%; in the assay with Capsella bursa-pastoris (480 h, Capsella bursa-pastoris, 425 g/hm^2, read-out: actual fresh weight inhibition rate) it was 40.9%.

As for `CSc1nc(NC(C)C)nc(NC(C)C)n1` [prometryn], the pest or weed control at 150 g/ha amounted to 22.6% in the assay with Myosoton aquaticum (Myosoton aquaticum, 480 h, Myosoton aquaticum, 150 g/hm^2, read-out: actual fresh weight inhibition rate) and 20.4% in the assay with Capsella bursa-pastoris (480 h, Capsella bursa-pastoris, 150 g/hm^2, read-out: actual fresh weight inhibition rate). In addition, the pest or weed control at 450 g/ha turned out to be 33.7% in the assay on Myosoton aquaticum (Myosoton aquaticum, 480 h, Myosoton aquaticum, 450 g/hm^2, read-out: actual fresh weight inhibition rate) and 29.6% with Capsella bursa-pastoris (480 h, Capsella bursa-pastoris, 450 g/hm^2, read-out: actual fresh weight inhibition rate). In addition, the pest or weed control at 750 g/ha in the assay with Myosoton aquaticum (setting [1]) was determined as 45.2%; with Capsella bursa-pastoris (setting [2]), 45.7%.

For the molecule `Cc1cc(Cl)ccc1OCC(=O)OCCCCCC(C)C` [MCPA-isooctyl, reference compound], the “actual fresh weight inhibition rate (%)” value in the assay on Myosoton aquaticum (dosage 600 g/hm^2) is 23.8%; with Myosoton aquaticum (dosage 1200 g/hm^2), 35.6%; with Myosoton aquaticum (dosage 1800 g/hm^2), 45.8%; in the assay with Capsella bursa-pastoris (dosage 600 g/hm^2), 33.2%; in the assay on Capsella bursa-pastoris (dosage 1200 g/hm^2) it was 41.7%; in the assay with Capsella bursa-pastoris (dosage 1800 g/hm^2), 60.5%.

As to `O=C(Nc1ccc(F)cc1)c1cccc(Oc2cccc(C(F)(F)F)c2)n1` [picolinafen], the “actual fresh weight inhibition rate” value in the assay with Myosoton aquaticum (Myosoton aquaticum, 40 g/hm^2) stood at 14.5%; in the assay with Myosoton aquaticum (Myosoton aquaticum, 80 g/hm^2), 34.9%; in the assay on Myosoton aquaticum (Myosoton aquaticum, 120 g/hm^2), 50.5%; in the assay on Capsella bursa-pastoris (Capsella bursa-pastoris, 40 g/hm^2) it was 16.4%; with Capsella bursa-pastoris (Capsella bursa-pastoris, 80 g/hm^2), 33.2%; in the assay on Capsella bursa-pastoris (Capsella bursa-pastoris, 120 g/hm^2) it was 55.6%.

As to “dimethylammonium 4-chloro-o-tolyloxyacetate [MCPA-dimethylammonium, reference compound]”, the “actual fresh weight inhibition rate (%)” value worked out at 26.7% in the assay with Myosoton aquaticum (dosage 550 g/hm^2); 33.1% with Myosoton aquaticum (dosage 950 g/hm^2); 47.2% in the assay with Myosoton aquaticum (dosage 1350 g/hm^2); 29.2% in the assay on Capsella bursa-pastoris (dosage 550 g/hm^2); 43.6% in the assay on Capsella bursa-pastoris (dosage 950 g/hm^2); 59.2% in the assay with Capsella bursa-pastoris (dosage 1350 g/hm^2).

Take `CC(C)N1C(=O)c2ccccc2NS1(=O)=O` [bentazon]: the pest or weed control at 500 g/ha in the assay on Myosoton aquaticum (Myosoton aquaticum, 480 h, Myosoton aquaticum, 500 g/hm^2, read-out: actual fresh weight inhibition rate) was found to be 33.4%; in the assay with Capsella bursa-pastoris (480 h, Capsella bursa-pastoris, 500 g/hm^2, read-out: actual fresh weight inhibition rate), 38.5%. Also, the pest or weed control at 750 g/ha is 46.2% in the assay on Myosoton aquaticum (setting [1]) and 58.2% with Capsella bursa-pastoris (setting [2]). Moreover, the pest or weed control at 1000 g/ha stood at 58.7% with Myosoton aquaticum (Myosoton aquaticum, 480 h, Myosoton aquaticum, 1000 g/hm^2, read-out: actual fresh weight inhibition rate) and 73.1% in the assay on Capsella bursa-pastoris (480 h, Capsella bursa-pastoris, 1000 g/hm^2, read-out: actual fresh weight inhibition rate).

On to `Nc1c(Cl)c(F)nc(OCC(=O)O)c1Cl` [fluroxypyr, reference compound], for which the “actual fresh weight inhibition rate (%)” value in the assay on Myosoton aquaticum (dosage 100 g/hm^2) worked out at 90.1%; with Myosoton aquaticum (dosage 150 g/hm^2), 100%; in the assay on Myosoton aquaticum (dosage 200 g/hm^2), 100%; with Capsella bursa-pastoris (dosage 100 g/hm^2) it was 10.1%; with Capsella bursa-pastoris (dosage 150 g/hm^2), 18.3%; in the assay with Capsella bursa-pastoris (dosage 200 g/hm^2), 28.7%.

On to `CCCCOC(=O)COc1ccc(Cl)cc1Cl` [2,4-butyl ester, 2,4-D butyl ester, reference compound], for which the “actual fresh weight inhibition rate (%)” value in the assay with Myosoton aquaticum (dosage 200 g/hm^2) is 18.4%; in the assay on Myosoton aquaticum (dosage 350 g/hm^2) it was 29.8%; in the assay with Myosoton aquaticum (dosage 500 g/hm^2) it was 49.3%; in the assay on Capsella bursa-pastoris (dosage 200 g/hm^2), 23.4%; in the assay with Capsella bursa-pastoris (dosage 350 g/hm^2), 42.9%; in the assay on Capsella bursa-pastoris (dosage 500 g/hm^2), 55.6%.

Consider `COC(=O)c1c(Cl)nn(C)c1S(=O)(=O)NC(=O)Nc1nc(OC)cc(OC)n1` [halosulfuron-methyl], for which, in the assay on Myosoton aquaticum (setting [3]), the pest or weed control at 30 g/ha came out at 14.5%, the pest or weed control at 50 g/ha was found to be 34.9% and the pest or weed control at 70 g/ha was 50.5%. Moreover, in the assay on Capsella bursa-pastoris (setting [4]), the pest or weed control at 30 g/ha is 17.9%, the pest or weed control at 50 g/ha came out at 27.8% and the pest or weed control at 70 g/ha was found to be 44.1%.

Turning to `Cc1cc(Cl)ccc1OCC(=O)O` [MCPA, 2-methyl-4-chlorophenoxy acetic acid, reference compound], the “actual fresh weight inhibition rate (%)” value in the assay on Myosoton aquaticum (dosage 300 g/hm^2) amounted to 23.8%; in the assay on Myosoton aquaticum (dosage 600 g/hm^2), 35.6%; with Myosoton aquaticum (dosage 900 g/hm^2), 45.8%; with Capsella bursa-pastoris (dosage 300 g/hm^2), 33.2%; in the assay with Capsella bursa-pastoris (dosage 600 g/hm^2), 41.7%; with Capsella bursa-pastoris (dosage 900 g/hm^2), 60.5%.

For `COc1ncc(F)c2nc(S(=O)(=O)Nc3c(F)cccc3F)nn12` [florasulam], the “actual fresh weight inhibition rate” value in the assay with Myosoton aquaticum (Myosoton aquaticum, 2.5 g/hm^2) is 28.3%; in the assay on Myosoton aquaticum (Myosoton aquaticum, 5 g/hm^2), 41.9%; in the assay with Capsella bursa-pastoris (Capsella bursa-pastoris, 2.5 g/hm^2), 45.8%; in the assay with Capsella bursa-pastoris (Capsella bursa-pastoris, 5 g/hm^2), 60.4%.

As for `O=C(O)COC(=O)c1cc(Oc2ccc(C(F)(F)F)cc2Cl)ccc1[N+](=O)[O-]` [fluoroglycofen, reference compound], the “actual fresh weight inhibition rate (%)” value in the assay on Myosoton aquaticum (dosage 5 g/hm^2) is on record as 37.9%; in the assay with Myosoton aquaticum (dosage 10 g/hm^2), 41.8%; with Myosoton aquaticum (dosage 15 g/hm^2), 55.4%; in the assay with Capsella bursa-pastoris (dosage 5 g/hm^2), 47.4%; in the assay with Capsella bursa-pastoris (dosage 10 g/hm^2), 61.6%; in the assay on Capsella bursa-pastoris (dosage 15 g/hm^2), 70.5%.

For `COC(=O)c1nc(-c2ccc(Cl)c(OC)c2F)cc(N)c1Cl` [halauxifen-methyl, reference compound], the “actual fresh weight inhibition rate (%)” value with Myosoton aquaticum (dosage 5 g/hm^2) stood at 17.5%; with Myosoton aquaticum (dosage 10 g/hm^2), 35.6%; in the assay on Capsella bursa-pastoris (dosage 5 g/hm^2) it was 59.7%; in the assay with Capsella bursa-pastoris (dosage 10 g/hm^2), 71.4%.

With `Cc1cc(Cl)ccc1OCC(=O)[O-].[Na+]` [MCPA-Na, reference compound], the “actual fresh weight inhibition rate (%)” value turned out to be 24.8% with Myosoton aquaticum (dosage 400 g/hm^2); 36.9% in the assay with Myosoton aquaticum (dosage 800 g/hm^2); 50.9% in the assay with Myosoton aquaticum (dosage 1200 g/hm^2); 22.1% in the assay with Capsella bursa-pastoris (dosage 400 g/hm^2); 38.3% in the assay on Capsella bursa-pastoris (dosage 800 g/hm^2); 56.7% in the assay on Capsella bursa-pastoris (dosage 1200 g/hm^2).

The values above are taken from patent US10506810B2, “Synergistic herbicidal composition” (QINGDAO KINGAGROOT RESISTANT WEED MANAGEMENT CO., LTD., priority 2015, dated 2019).
